# Assays:
# RARα = molecular target: T1, RARα (Homo sapiens, UniProt P10276); assay: BRET assay of agonist-dependent coactivator recruitment in transfected HEK293 cells; format: cell-based
# T1 sequence (P10276 1-462): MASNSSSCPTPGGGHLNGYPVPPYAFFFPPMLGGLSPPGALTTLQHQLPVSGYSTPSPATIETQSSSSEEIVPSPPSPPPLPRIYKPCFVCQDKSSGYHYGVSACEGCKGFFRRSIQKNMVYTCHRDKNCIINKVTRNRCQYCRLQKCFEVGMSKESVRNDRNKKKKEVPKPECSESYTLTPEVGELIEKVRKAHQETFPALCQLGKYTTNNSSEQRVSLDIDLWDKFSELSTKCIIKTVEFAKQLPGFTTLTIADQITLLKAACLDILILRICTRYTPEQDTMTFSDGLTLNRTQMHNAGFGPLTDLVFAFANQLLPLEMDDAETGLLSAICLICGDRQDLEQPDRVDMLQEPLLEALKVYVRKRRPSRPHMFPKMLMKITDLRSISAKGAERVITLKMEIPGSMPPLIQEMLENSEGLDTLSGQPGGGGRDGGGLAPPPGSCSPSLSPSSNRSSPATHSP
# Experimental: Hybrid 3 was prepared by treatment of the methyl ester of TTNN with excess hydroxylamine under alkaline conditions. The effects of hybrid 3 on RAR were initially assessed using a bioluminescence resonance energy transfer (BRET) assay. The BRET assay monitors agonist-dependent recruitment of coactivators to RARs in transfected HEK293 cells, chosen because of their high degree of transfectability. Energy transfer between luciferase (fused to RARα) and eGFP (fused to the LXXLL coactivator motif) occurs only when these moieties are juxtaposed by the RAR-LXXLL interaction, and can be detected by the emission of green fluorescence.
# Cell transfection and BRET assays: HEK293 cells were grown to confluence, trypsinized and plated at a density of 500 k cells per well (12-well plates) in DMEM supplemented with 10% charcoal treated FBS (FBS-T). The following day, cells were transfected with PEI using 0.1 μg of RAR-RLuc vector and 1 μg of LXXLL-eGFP vector. 48 hours post-transfection, cells were treated with retinoids for 2 hours before taking BRET measurements as described previously.
# HCT-15 [1] = assay: cells; conditions: Homo sapiens, HCT-15, 48 h
# SR = assay: cells; conditions: Homo sapiens, 48 h
# HCT-116 = assay: cells; conditions: Homo sapiens, HCT-116, 48 h
# NCI-H460 = NCI-H460 (Non-Small cell lung cancer); 48 h
# A549/ATCC = A549/ATCC (Non-Small cell lung cancer); 48 h
# SN12C = assay: cells; conditions: Homo sapiens, 48 h
# SK-MEL-5 = assay: cells; conditions: Homo sapiens, SK-MEL-5, 48 h
# BT-20 = assay: Cell growth measurement; format: cell-based; conditions: BT-20 (ER-negative, HER2-negative, RA-insensitive)
# 786-0 [2] = assay: cells; conditions: Homo sapiens, 786-0, 48 h
# HCT-15 [3] = conditions: HCT-15 (Colon); 48 h
# SNB-75 = SNB-75 (CNS); 48 h
# 786-0 [4] = conditions: 786-0 (Renal); 48 h
# UO-31 = assay: cells; conditions: Homo sapiens, UO-31, 48 h
# OVCAR-4 = assay: cells; conditions: Homo sapiens, OVCAR-4, 48 h
# ACHN = ACHN (Renal); 48 h
# SF-539 = SF-539 (CNS); 48 h
# OVCAR-8 = assay: cells; conditions: Homo sapiens, OVCAR-8, 48 h
# UACC-62 = UACC-62 (Melanoma); 48 h
# DU-145 = assay: cells; conditions: Homo sapiens, DU-145, 48 h
compound,measurement,setting,value
CC1(C)CCC(C)(C)c2cc(-c3ccc4cc(C(=O)NO)ccc4c3)ccc21 [hybrid 3],RARα agonism (BRET signal),"RARα; 1 μM, 2 hours treatment",agonists of RARα
same,EC50,"RARα; FIG. 2b, read-out: IC50 in inducing RARα (BRET dose-response)",1.02 µM
same,GI50,HCT-15 [1],0.381 µM
same,CC50,HCT-15 [1]; read-out: LC50,9.38 µM
same,GI50,SR,0.335 µM
same,CC50,SR; read-out: LC50,7.64 µM
same,GI50,HCT-116,0.424 µM
same,CC50,HCT-116; read-out: LC50,4.03 µM
same,TGI,NCI-H460,1.07 µM
same,TGI,A549/ATCC,2.15 µM
same,GI50,SN12C,1.05 µM
same,CC50,SN12C; read-out: LC50,5.34 µM
same,GI50,SK-MEL-5,0.977 µM
same,CC50,SK-MEL-5; read-out: LC50,5.37 µM
same,effect on cell growth,BT-20,active
same,GI50,786-0 [2],1.1 µM
same,CC50,786-0 [2]; read-out: LC50,5.12 µM
same,TGI,HCT-15 [3],2.03 µM
same,TGI,SNB-75,6.1 µM
same,TGI,786-0 [4],2.37 µM
same,GI50,UO-31,0.404 µM
same,CC50,UO-31; read-out: LC50,4.53 µM
same,GI50,OVCAR-4,0.533 µM
same,CC50,OVCAR-4; read-out: LC50,29.1 µM
same,TGI,ACHN,1.49 µM
same,TGI,SF-539,7.26 µM
same,GI50,OVCAR-8,0.459 µM
same,CC50,OVCAR-8; read-out: LC50,5.12 µM
same,TGI,UACC-62,1.86 µM
same,GI50,DU-145,0.622 µM
same,CC50,DU-145; read-out: LC50,4.68 µM
